From patent US5998442A, “Benzo [B] thiophene compounds, and compositions for treating bone loss, and hyperlipidemia” (Eli Lilly and Company, priority 1997, dated 1999)

Tests used:
[1] = system: serum cholesterol, ovariectomized rats; assay: Serum cholesterol in ovariectomized rats (4 days daily oral dosing); type: in vivo, rat (female Sprague Dawley); conditions: for inhibition in vivo at 0.1 mg/kg: 0.1 mg/kg PO; for inhibition in vivo at 1 mg/kg: 1.0 mg/kg PO; for inhibition in vivo at 10 mg/kg: 10.0 mg/kg PO
Procedure: (§1) In the examples illustrating the methods, a postmenopausal model was used in which effects of different treatments upon circulating lipids were determined.
(§2) Seventy-five day old female Sprague Dawley rats (weight range of 200 to 225 g) were obtained from Charles River Laboratories (Portage, Mich.). The animals were either bilaterally ovariectomized (OVX) or exposed to a Sham surgical procedure at Charles River Laboratories, and then shipped after one week. Upon arrival, they were housed in metal hanging cages in groups of 3 or 4 per cage and had ad libitum access to food (calcium content approximately 0.5%) and water for one week. Room temperature was maintained at 22.2°±1.70° C. with a minimum relative humidity of 40%. The photoperiod in the room was 12 hours light and 12 hours dark.
(§3) After a one week acclimation period (therefore, two weeks post-OVX) daily dosing with test compound was initiated. […] Animals were dosed daily for 4 days. Following the dosing regimen, animals were weighed and anesthetized with a ketamine: Xylazine (2:1, V:V) mixture and a blood sample was collected by cardiac puncture. The animals were then sacrificed by asphyxiation with CO2, the uterus was removed through a midline incision, and a wet uterine weight was determined.
Blood samples were allowed to clot at room temperature for 2 hours, and serum was obtained following centrifugation for 10 minutes at 3000 rpm. Serum cholesterol was determined using a Boehringer Mannheim Diagnostics high performance cholesterol assay. Briefly the cholesterol was oxidized to cholest-4-en-3-one and hydrogen peroxide. The hydrogen peroxide was then reacted with phenol and 4-aminophenazone in the presence of peroxidase to produce a p-quinone imine dye, which was read spectrophotemetrically at 500 nm. Cholesterol concentration was then calculated against a standard curve. The entire assay was automated using a Biomek Automated Workstation. […]
(§4) The data presented in Table 1 below reflects the response of 5 to 6 rats per treatment.

[2] = system: bone, ovariectomized rats; assay: Osteoporosis Test Procedure: bone loss in ovariectomized rats (summary); type: in vivo, rat; conditions: orally administered
Procedure: (§5) Following the General Preparation Procedure, infra, the rats were treated daily for 35 days (6 rats per treatment group) and sacrificed by carbon dioxide asphyxiation on the 36th day. The 35 day time period was sufficient to allow maximal reduction in bone density, measured as described herein. At the time of sacrifice, the uteri were removed, dissected free of extraneous tissue, and the fluid contents were expelled before determination of wet weight in order to confirm estrogen deficiency associated with complete ovariectomy. […] The uteri were then placed in 10% neutral buffered formalin to allow for subsequent histological analysis. The right femurs were excised and digitilized x-rays generated and analyzed by an image analysis program (NIH image) at the distal metaphysis. The proximal aspect of the tibiae from these animals were also scanned by quantitative computed tomography. […] Distal femur metaphysis and proximal tibiae data presented in Tables 2 and 3 below, respectively are the results of formula I compound treatments compared to intact and ovariectomized test animals. Results are reported as percent protection relative to ovariectomy.

[3] = system: Distal Femur Metaphysis, ovariectomized rats; assay: Osteoporosis Test Procedure: distal femur metaphysis X-ray image analysis; type: in vivo, rat; conditions: 35 days
Procedure: as §5

[4] = system: Proximal Tibiae, ovariectomized rats; assay: Osteoporosis Test Procedure: proximal tibiae quantitative computed tomography; type: in vivo, rat; conditions: 35 days
Procedure: as §5

[5] = system: uterus, ovariectomized rats; assay: Uterine weight in ovariectomized rats (4 days daily oral dosing); type: in vivo, rat (female Sprague Dawley); conditions: for change in vivo at 0.1 mg/kg: 0.1 mg/kg PO; for change in vivo at 1 mg/kg: 1.0 mg/kg PO; for change in vivo at 10 mg/kg: 10.0 mg/kg PO
Procedure: as §1, §2, §3
This uterine response to estrogen is well recognized in the art.
as §4

[6] = system: Uterine Eosinophil Peroxidase (EPO); assay: Uterine Eosinophil Peroxidase (EPO) Assay in ovariectomized rats; type: in vivo, rat (female Sprague Dawley); design: Uterine EPO (Vmax): unit not given here
Text: as §2, §3
Uteri were kept at 4° C. until time of enzymatic analysis. The uteri were then homogenized in 50 volumes of 50 mM Tris buffer (pH-8.0) containing 0.005% Triton X-100. Upon addition of 0.01% hydrogen peroxide and 10 mM O-phenylenediamine (final concentrations) in Tris buffer, increase in absorbance was monitored for one minute at 450 nm. The presence of eosonophils in the uterus is an indication of estrogenic activity of a compound. The maximal velocity of a 15 second interval was determined over the initial, linear portion of the reaction curve.
As is expressed in the data below, estrogenicity also was assessed by evaluating the adverse response of eosinophil infiltration into the uterus.
as §4

[7] = system: MCF-7 breast adenocarcinoma cells; assay: MCF-7 Proliferation Assay (tritiated thymidine); type: cell-based; conditions: Homo sapiens, MCF7, 48 hours, read-out: IC50
Procedure: MCF-7 breast adenocarcinoma cells (ATCC HTB 22) were maintained in MEM (minimal essential medium, phenol red-free, Sigma, St. Louis, Mo.) supplimented with 10% fetal bovine serum (FBS) (V/V), L-glutamine (2 mM), sodium pyruvate (1 mM), HEPES {(N-[2-hydroxyethyl]piperazine-N'-[2-ethanesulfonic acid]10 mM}, non-essential amino acids and bovine insulin (1 ug/mL) (maintenance medium). Ten days prior to assay, MCF-7 cells were switched to maintenance medium supplemented with 10% dextran coated charcoal stripped fetal bovine serum (DCC-FBS) assay medium) in place of 10% FBS to deplete internal stores of steroids. MCF-7 cells were removed from maintenance flasks using cell dissociation medium (Ca++/Mg++ free HBSS (phenol red-free) supplemented with 10 mM HEPES and 2 mM EDTA). Cells were washed twice with assay medium and adjusted to 80,000 cells/mL. Approximately […] (8,000 cells) were added to flat-bottom microculture wells (Costar 3596) and incubated at 37° C. in a 5% CO2 humidified incubator for 48 hours to allow for cell adherence and equilibration after transfer. Serial dilutions of drugs or DMSO as a diluent control were prepared in assay medium and […] to triplicate microcultures followed by […] assay medium for a final volume of […]. After an additional 48 hours at 37° C. in a 5% CO2 humidified incubator, microcultures were pulsed with tritiated thymidine (1 uCi/well) for 4 hours. Cultures were terminated by freezing at -70° C. for 24 hours followed by thawing and harvesting of microcultures using a Skatron Semiautomatic Cell Harvester. Samples were counted by liquid scintillation using a Wallac BetaPlace b counter. Results in Table 4 below show the IC50 for certain compounds of the instant invention. […]

[8] = orally administered at 0.1 mg/kg/day
[9] = Rattus norvegicus, 96 h, read-out: Serum Cholesterol (% decrease vs. OVX)
[10] = Rattus norvegicus, 96 h, read-out: Uterine weight (% increase vs. OVX)

SMILES | IC50 [7] | Proximal Tibiae Total Bone Mineral Density (Quantitative Computed Tomography), percent protection relative to ovariectomy ([4]; 0.1 mg/kg oral) | inhibition in vivo at 0.1 mg/kg [1, 9] | inhibition in vivo at 1 mg/kg [1, 9] | inhibition in vivo at 10 mg/kg [1, 9] | Uterine EPO (Vmax) ([6]; 0.1 mg/kg PO) | Uterine EPO (Vmax) ([6]; 1.0 mg/kg PO) | Uterine EPO (Vmax) ([6]; 10.0 mg/kg PO) | change in vivo at 0.1 mg/kg [5, 10] | change in vivo at 1 mg/kg [5, 10] | change in vivo at 10 mg/kg [5, 10] | further results
C#C[C@]1(O)CC[C@H]2[C@@H]3CCc4cc(O)ccc4[C@H]3CC[C@@]21C [EE2, 17a-ethynyl estradiol, reference compound] |  | 59.4% |  |  |  |  |  |  |  |  |  | serum cholesterol (in words) [1, 8]: caused a decrease in serum cholesterol; prevention of bone loss (in words) [2]: prevented this loss; Distal Femur Metaphysis (X-ray Image Analysis-Gray Score), percent protection relative to ovariectomy ([3]; oral, dose not given): 80.7%; uterine weight (in words) [5, 8]: substantially greater than the uterine weight of ovariectomized test animals
COc1ccc2c(C(=O)c3ccc(OCCN4CCCCC4)cc3)c(-c3cccc(F)c3)sc2c1 [Example 21, [2-(3-Fluorophenyl)-6-methoxybenzo[b]thien-3-yl] [4-[2-(1-piperidinyl)ethoxy]phenyl]methanone] | 500 nM |  | 1.4% | -12% | 60.5% | 4.5 | 4.8 | 7.5 | 14.9% | 4.1% | 25.3% | 
O=C(c1ccc(OCCN2CCCCC2)cc1)c1c(-c2cccc(F)c2)sc2cc(O)ccc12 [Example 22, [2-(3-Fluorophenyl)-6-hydroxybenzothien-3-yl] [4-[2-(1-piperidinyl)ethoxy]phenyl]methanone] | 2.5 nM |  | 18.6% | 62% | 67.3% | 4.8 | 7.8 | 12.0 | 53.2% | 62.8% | 26.9% | 

More lines, main results first:

IC50 [7] | SMILES | Proximal Tibiae Total Bone Mineral Density (Quantitative Computed Tomography), percent protection relative to ovariectomy ([4]; 0.1 mg/kg oral) | inhibition in vivo at 0.1 mg/kg [1, 9] | inhibition in vivo at 1 mg/kg [1, 9] | inhibition in vivo at 10 mg/kg [1, 9] | Uterine EPO (Vmax) ([6]; 0.1 mg/kg PO) | Uterine EPO (Vmax) ([6]; 1.0 mg/kg PO) | Uterine EPO (Vmax) ([6]; 10.0 mg/kg PO) | change in vivo at 0.1 mg/kg [5, 10] | change in vivo at 1 mg/kg [5, 10] | change in vivo at 10 mg/kg [5, 10] | further results
0.3 nM | O=C(c1ccc(OCCN2CCCCC2)cc1)c1c(-c2ccc(O)c(F)c2)sc2cc(O)ccc12 [Example 2, [2-(3-fluoro-4-hydroxyphenyl)-6-hydroxybenzo[b]thien-3-yl][4-[2-(1-piperidinyl)ethoxy]phenyl]methanone] |  | 48.1% | 64.7% | 47.8% | 4.8 | 4.8 | 3.6 | 53.3% | 53.7% | 25.9% | inhibition in vivo at 0.01 mg/kg ([1]; Rattus norvegicus, 96 h, 0.01 mg/kg PO, read-out: Serum Cholesterol (% decrease vs. OVX)): 21.7%; Distal Femur Metaphysis (X-ray Image Analysis-Gray Score), percent protection relative to ovariectomy ([3]; 0.01 mg/kg oral): 34.5%; Distal Femur Metaphysis (X-ray Image Analysis-Gray Score), percent protection relative to ovariectomy ([3]; 0.1 mg/kg oral): 34.1%; Distal Femur Metaphysis (X-ray Image Analysis-Gray Score), percent protection relative to ovariectomy ([3]; 1.0 mg/kg oral): 68.0%; Distal Femur Metaphysis (X-ray Image Analysis-Gray Score), percent protection relative to ovariectomy ([3]; 10.0 mg/kg oral): 70.0%; Uterine EPO (Vmax) ([6]; 0.01 mg/kg PO): 4.8; change in vivo at 0.01 mg/kg ([5]; Rattus norvegicus, 96 h, 0.01 mg/kg PO, read-out: Uterine weight (% increase vs. OVX)): 3.2%
3.2 nM | O=C(c1ccc(OCCN2CCCCC2)cc1)c1c(-c2cccc(O)c2)sc2cc(O)ccc12 [Example 12, [2-(3-Hydroxyphenyl)-6-hydroxybenzo[b]thien-3-yl][4-[2-(1-piperidinyl)ethoxy]phenyl]methanone] | -30.9% | 24.3% | 52.3% | 49.1% | 2.0 | 2.6 | 2.4 | 15.5% | 22.7% | 16.7% | Proximal Tibiae Total Bone Mineral Density (Quantitative Computed Tomography), percent protection relative to ovariectomy ([4]; 1.0 mg/kg oral): 51.5%; Proximal Tibiae Total Bone Mineral Density (Quantitative Computed Tomography), percent protection relative to ovariectomy ([4]; 10.0 mg/kg oral): 79.7%
0.7 nM | Cc1ccccc1-c1sc2cc(O)ccc2c1C(=O)c1ccc(OCCN2CCCCC2)cc1 [Example 23, [2-(2-Methylphenyl)-6-hydroxybenzo[b]thien-3-yl] [4-[2-(1-piperidinyl)ethoxy]phenyl]methanone] |  | 31.7% | 38.6% | 29.3% | 12.0 | 8.4 | 8.1 | 8.5% | 12% | 10.9% | 
